Experimental data reported in US10888544B2, “Methods for treating Gaucher disease” (Genzyme Corporation, priority 2017, dated 2021).
Several values for one entry are separate records, joined by “and”; a condition that tells them apart may be missing. Identical values can stand only once. Like-named read-outs stand apart in the source and are kept apart here.

Assay: Single oral dose pharmacokinetic study of eliglustat tartrate in mild or moderate hepatic impairment and matched healthy subjects (Example 1)
Format: in vivo, human
Details: for AUC(0-inf) / AUC(0-t) / Cmax / Vd/F / Tmax: human, 100 mg
Method: A multi-center, open-label, single oral dose study of eliglustat tartrate administered to mild or moderate HI and normal hepatic function (healthy) matched (by body weight and cytochrome P450 [CYP] 2D6 phenotype) subjects was carried out to study the effect of mild and moderate hepatic impairment (HI) on the pharmacokinetics (PK) of eliglustat.
Approximately 8 subjects were planned to be enrolled into each HI group (mild or moderate HI) and 8 subjects with normal hepatic function matched to impaired subjects by weight and CYP2D6 phenotype. At least 6 CYP2D6 extensive metabolizers (EMs) were to be enrolled into each impairment group, with the remaining 2 subjects enrolled according to the following preference: at least 20 subjects were to be screened for each impairment group and if identified, up to 2 CYP2D6 poor metabolizers (PMs) were enrolled. If less than 2 PMs were identified, up to 2 CYP2D6 intermediate metabolizers (IMs) were to be enrolled for a total of 8 subjects per group. If less than 2 PMs or IMs were identified, up to 2 additional EMs were to be enrolled for a total of 8 subjects per group. If 2 PMs were identified prior to screening 20 subjects, screening may have been discontinued. If an eligible PM subject was identified after satisfying the above requirements and enrolling 8 subjects for an impairment group, this subject may still have been enrolled for that impairment group.
CYP2D6 EMs and IMs were to receive a single 100-mg dose of eliglustat tartrate, while CYP2D6 PMs were to receive a single 50-mg dose of eliglustat tartrate.
For HI subjects: Male (body weight between 50.0 and 125.0 kg, inclusive) or female subjects (body weight between 40.0 and 110.0 kg, inclusive) between 18 and 79 years, inclusive, with a body mass index between 18.0 and 37 kg/m^2, inclusive; having stable chronic liver disease assessed by medical history, physical examination, and laboratory values; with moderate HI (defined as Child-Pugh score of 7 to 9, inclusive) or mild HI (defined as Child-Pugh score of 5 to 6, inclusive). For healthy subjects: Male or female subjects, between 18 and 79 years, inclusive; body weight within 15% of the body weight of matched subjects with HI, and body mass index between 18.0 and 37 kg/m^2, inclusive; healthy subjects were also matched to HI groups by CYP2D6 phenotype predicted from genotype.
A single 100-mg capsule of eliglustat tartrate (equivalent to 84 mg of eliglustat) was administered to CYP2D6 EM or IM subjects with mild or moderate HI and matching healthy subjects.
Pharmacokinetics: The following PK parameters were calculated for eliglustat plasma concentrations using noncompartmental methods: Maximum plasma concentration observed (Cmax), area under the plasma concentration versus time curve calculated using the trapezoidal method from time zero to the time corresponding to the last quantifiable concentration tlast (AUClast), time to reach Cmax(tmax), area under the plasma concentration versus time curve extrapolated to infinity (AUC), terminal half-life associated with the terminal slope λz (t1/2z), time corresponding to the last concentration above the limit of quantification (tlast), apparent total body clearance of a drug from the plasma (CL/F), and apparent volume of distribution during the terminal (λz) phase (Vz/F).
Blood samples were collected at the following timepoints to assess plasma concentrations of eliglustat: predose and 0.5, 1, 1.5, 2, 2.5, 3, 4, 6, 8, 10, 12, 24, 36, and 48 hours postdose.
Eliglustat concentrations in plasma were determined using a validated liquid chromatography-tandem mass spectrometry method with a lower limit of quantification of 0.2 ng/mL.
Eliglustat PK parameters were summarized using descriptive statistics for each population group and for each CYP2D6 phenotype. […]

[1] = CYP2D6 EM, healthy, N=7, single 100 mg eliglustat tartrate oral, plasma
[2] = CYP2D6 EM, mild HI, N=6, single 100 mg eliglustat tartrate oral, plasma
[3] = CYP2D6 EM, moderate HI, N=7, single 100 mg eliglustat tartrate oral, plasma
[4] = CYP2D6 IM, healthy, N=1, single 100 mg eliglustat tartrate oral, plasma
[5] = CYP2D6 IM, mild HI, N=2, single 100 mg eliglustat tartrate oral, plasma
[6] = CYP2D6 IM, moderate HI, N=1, single 100 mg eliglustat tartrate oral, plasma
[7] = Mild HI vs Healthy, CYP2D6 EM subjects, single 100 mg eliglustat tartrate
[8] = Moderate HI vs Healthy, CYP2D6 EM subjects, single 100 mg eliglustat tartrate

Structure (SMILES): CCCCCCCC(=O)N[C@H](CN1CCCC1)[C@H](O)c1ccc2c(c1)OCCO2 [eliglustat, N-((1R,2R)-1-(2,3-dihydrobenzo[b][1,4]dioxin-6-yl)-1-hydroxy-3-(pyrrolidin-1-yl)propan-2-yl)octanamide]
- CL/F, geometric mean [1]: (1420) [40.1] L/h
- CL/F, mean ± SD [1]: 1570 ± 628 L/h
- t1/2z, geometric mean [1]: (7.03) [12.5] h
- t1/2z, mean ± SD [1]: 7.08 h and 7.08 ± 0.881 h
- tlast, median [1]: 24.00 h
- CL/F, geometric mean [2]: (1230) [72.8]^ L/h
- CL/F, mean ± SD [2]: 1980 ± 1440 L/h
- t1/2z, geometric mean [2]: (7.13) [20.1] h
- t1/2z, mean ± SD [2]: 7.25 ± 1.46 h
- tlast, median [2]: 30.00 h
- CL/F, geometric mean [3]: (275) [70.9] L/h
- CL/F, mean ± SD [3]: 416 ± 295 L/h
- t1/2z, geometric mean [3]: (10.3) [21.4]^ h
- t1/2z, mean ± SD [3]: 10.5 h and 10.5 ± 2.25 h
- tlast, median [3]: 48.00 h
- CL/F [4]: 146 L/h
- t1/2z [4]: 8.48 h
- tlast [4]: 48.00 h
- CL/F, mean [5]: 306 L/h
- t1/2z, mean [5]: 9.34 h
- tlast [5]: 48.00 h
- CL/F [6]: 406 L/h
- t1/2z [6]: 5.87 h
- tlast [6]: 24.00 h
- AUC geometric mean ratio, point estimate [7]: 1.15
- AUClast geometric mean ratio, point estimate [7]: 1.18
- CL/F geometric mean ratio, point estimate [7]: 0.87
- Cmax geometric mean ratio, point estimate [7]: 1.22
- Vz/F geometric mean ratio, point estimate [7]: 0.88
- AUC geometric mean ratio, point estimate [8]: 5.16
- AUClast geometric mean ratio, point estimate [8]: 5.35
- CL/F geometric mean ratio, point estimate [8]: 0.19
- Cmax geometric mean ratio, point estimate [8]: 2.81
- Vz/F geometric mean ratio, point estimate [8]: 0.28
- t1/2z geometric mean ratio, point estimate [8]: 1.47
- AUC(0-inf) (both sexes, plasma, oral, CYP2D6 IM, healthy, N=1, single 100 mg eliglustat tartrate oral, plasma, read-out: AUC (extrapolated to infinity)): 578 ng·h/mL
- AUC(0-inf) (both sexes, plasma, oral, CYP2D6 IM, mild HI, N=2, single 100 mg eliglustat tartrate oral, plasma, read-out: AUC (extrapolated to infinity), mean): 346 ng·h/mL
- AUC(0-t) (both sexes, plasma, oral, CYP2D6 IM, mild HI, N=2, single 100 mg eliglustat tartrate oral, plasma, read-out: AUClast, mean): 334 ng·h/mL
- Cmax (both sexes, plasma, oral, CYP2D6 IM, mild HI, N=2, single 100 mg eliglustat tartrate oral, plasma, read-out: Cmax, mean): 35.9 ng/mL
- Vd/F (both sexes, plasma, oral, CYP2D6 IM, mild HI, N=2, single 100 mg eliglustat tartrate oral, plasma, read-out: Vz/F, mean): 3910 L
- Tmax (both sexes, plasma, oral, CYP2D6 IM, mild HI, N=2, single 100 mg eliglustat tartrate oral, plasma, read-out: tmax): 2 h
- AUC(0-inf) (both sexes, plasma, oral, CYP2D6 IM, moderate HI, N=1, single 100 mg eliglustat tartrate oral, plasma, read-out: AUC (extrapolated to infinity)): 208 ng·h/mL
- AUC(0-inf) (both sexes, plasma, po, CYP2D6 EM, healthy, N=7, single 100 mg eliglustat tartrate oral, plasma, read-out: AUC (extrapolated to infinity), geometric mean): 59.5 ng·h/mL
- AUC(0-inf) (both sexes, plasma, po, CYP2D6 EM, healthy, N=7, single 100 mg eliglustat tartrate oral, plasma, read-out: AUC (extrapolated to infinity), mean ± SD): 69 ± 49.1 ng·h/mL
- AUC(0-t) (both sexes, plasma, po, CYP2D6 EM, healthy, N=7, single 100 mg eliglustat tartrate oral, plasma, read-out: AUClast, geometric mean): 54.7 ng·h/mL
- AUC(0-t) (both sexes, plasma, po, CYP2D6 EM, healthy, N=7, single 100 mg eliglustat tartrate oral, plasma, read-out: AUClast, mean ± SD): 63.9 ± 47.1 ng·h/mL
- Cmax (both sexes, plasma, po, CYP2D6 EM, healthy, N=7, single 100 mg eliglustat tartrate oral, plasma, read-out: Cmax, geometric mean): 8.81 ng/mL
- Cmax (both sexes, plasma, po, CYP2D6 EM, healthy, N=7, single 100 mg eliglustat tartrate oral, plasma, read-out: Cmax, mean ± SD): 10.4 ± 7.4 ng/mL
- Vd/F (both sexes, plasma, po, CYP2D6 EM, healthy, N=7, single 100 mg eliglustat tartrate oral, plasma, read-out: Vz/F, geometric mean): 14400 L
- Vd/F (both sexes, plasma, po, CYP2D6 EM, healthy, N=7, single 100 mg eliglustat tartrate oral, plasma, read-out: Vz/F, mean ± SD): 16000 ± 6020 L
- Tmax (both sexes, plasma, po, CYP2D6 EM, healthy, N=7, single 100 mg eliglustat tartrate oral, plasma, read-out: tmax, median): 2.5 h
- AUC(0-inf) (both sexes, plasma, po, CYP2D6 EM, mild HI, N=6, single 100 mg eliglustat tartrate oral, plasma, read-out: AUC (extrapolated to infinity), geometric mean): 68.5 ng·h/mL
- AUC(0-inf) (both sexes, plasma, po, CYP2D6 EM, mild HI, N=6, single 100 mg eliglustat tartrate oral, plasma, read-out: AUC (extrapolated to infinity), mean ± SD): 172 ± 293 ng·h/mL
- AUC(0-t) (both sexes, plasma, po, CYP2D6 EM, mild HI, N=6, single 100 mg eliglustat tartrate oral, plasma, read-out: AUClast, geometric mean): 64.3 ng·h/mL
- AUC(0-t) (both sexes, plasma, po, CYP2D6 EM, mild HI, N=6, single 100 mg eliglustat tartrate oral, plasma, read-out: AUClast, mean ± SD): 166 ± 285 ng·h/mL
- Cmax (both sexes, plasma, po, CYP2D6 EM, mild HI, N=6, single 100 mg eliglustat tartrate oral, plasma, read-out: Cmax, geometric mean): 10.7 ng/mL
- Cmax (both sexes, plasma, po, CYP2D6 EM, mild HI, N=6, single 100 mg eliglustat tartrate oral, plasma, read-out: Cmax, mean ± SD): 22.4 ± 30.2 ng/mL
- Vd/F (both sexes, plasma, po, CYP2D6 EM, mild HI, N=6, single 100 mg eliglustat tartrate oral, plasma, read-out: Vz/F, geometric mean): 12700 L
- Vd/F (both sexes, plasma, po, CYP2D6 EM, mild HI, N=6, single 100 mg eliglustat tartrate oral, plasma, read-out: Vz/F, mean ± SD): 20000 ± 15600 L
- Tmax (both sexes, plasma, po, CYP2D6 EM, mild HI, N=6, single 100 mg eliglustat tartrate oral, plasma, read-out: tmax, median): 1.75 h
- AUC(0-inf) (both sexes, plasma, po, CYP2D6 EM, moderate HI, N=7, single 100 mg eliglustat tartrate oral, plasma, read-out: AUC (extrapolated to infinity), geometric mean): 307 ng·h/mL
- AUC(0-inf) (both sexes, plasma, po, CYP2D6 EM, moderate HI, N=7, single 100 mg eliglustat tartrate oral, plasma, read-out: AUC (extrapolated to infinity), mean ± SD): 575 ± 696 ng·h/mL
- AUC(0-t) (both sexes, plasma, po, CYP2D6 EM, moderate HI, N=7, single 100 mg eliglustat tartrate oral, plasma, read-out: AUClast, geometric mean): 293 ng·h/mL
- AUC(0-t) (both sexes, plasma, po, CYP2D6 EM, moderate HI, N=7, single 100 mg eliglustat tartrate oral, plasma, read-out: AUClast, mean ± SD): 536 ± 642 ng·h/mL
- Cmax (both sexes, plasma, po, CYP2D6 EM, moderate HI, N=7, single 100 mg eliglustat tartrate oral, plasma, read-out: Cmax, geometric mean): 24.8 ng/mL
- Cmax (both sexes, plasma, po, CYP2D6 EM, moderate HI, N=7, single 100 mg eliglustat tartrate oral, plasma, read-out: Cmax, mean ± SD): 39.5 ± 43.4 ng/mL
- Vd/F (both sexes, plasma, po, CYP2D6 EM, moderate HI, N=7, single 100 mg eliglustat tartrate oral, plasma, read-out: Vz/F, geometric mean): 4090 L
- Vd/F (both sexes, plasma, po, CYP2D6 EM, moderate HI, N=7, single 100 mg eliglustat tartrate oral, plasma, read-out: Vz/F, mean ± SD): 5840 ± 4130 L
- Tmax (both sexes, plasma, po, CYP2D6 EM, moderate HI, N=7, single 100 mg eliglustat tartrate oral, plasma, read-out: tmax, median): 4 h
- AUC(0-t) (plasma, oral, CYP2D6 IM, healthy, N=1, single 100 mg eliglustat tartrate oral, plasma, read-out: AUClast): 568 ng·h/mL
- Cmax (plasma, oral, CYP2D6 IM, healthy, N=1, single 100 mg eliglustat tartrate oral, plasma, read-out: Cmax): 75.9 ng/mL
- Vd/F (plasma, oral, CYP2D6 IM, healthy, N=1, single 100 mg eliglustat tartrate oral, plasma, read-out: Vz/F): 1790 L
- Tmax (plasma, oral, CYP2D6 IM, healthy, N=1, single 100 mg eliglustat tartrate oral, plasma, read-out: tmax): 2.5 h
- AUC(0-t) (plasma, oral, CYP2D6 IM, moderate HI, N=1, single 100 mg eliglustat tartrate oral, plasma, read-out: AUClast): 197 ng·h/mL
- Cmax (plasma, oral, CYP2D6 IM, moderate HI, N=1, single 100 mg eliglustat tartrate oral, plasma, read-out: Cmax): 35.6 ng/mL
- Vd/F (plasma, oral, CYP2D6 IM, moderate HI, N=1, single 100 mg eliglustat tartrate oral, plasma, read-out: Vz/F): 3430 L
- Tmax (plasma, oral, CYP2D6 IM, moderate HI, N=1, single 100 mg eliglustat tartrate oral, plasma, read-out: tmax): 1.52 h
